# Experimental data from patent US9114149B2, “[CU(thp)4]n[X]-n compounds for the treatment of a broad range of human solid tumors, including refractory tumors” (Universita Degli Studi Di Padova, priority 2011, dated 2015).
# Marks after values point to notes of the source that are not given here.
# Legend:
# C57BL mice [1] = assay: Maximum Tolerated Dose in C57BL mice; conditions: single ip administration, <20% weight loss and no animal death
# PC-3 = assay: MTT cytotoxicity, PC-3 (prostate); assay type: cell-based, human; conditions: MTT test, 72 hrs
# Excerpt: (§1) The in vitro antitumor activity of CP had been deeply evaluated in several human cancer cell lines by in vitro cytotoxicity assays. CP cytotoxicity has been detected in a large panel of human cell lines derived from a wide variety of solid tumors, including refractory tumors. In Table 1, the cytotoxicity parameters IC50 (that is the median growth inhibitory concentrations calculated from dose-survival curves via MTT test) are tabulated.
# (§2) Cell lines representative of lung (H157, U1810, U1285, Calu-1), pancreas (MIA PaCa-2, BxPC-3, AsPC-1, Capan-1), liver (Huh-7, Hep 3B, SK-Hep-1), oesophagus (OE33, OE21), oesophagus/gastric cardia (OE19), stomach (BGC-823, AGS), colon (HCT-116, T84, COLO 205), breast (MDA-MB-231, SK-BR-3), cervix (CaSki, C-33 A) ovarian (A2780, SK-OV-3, IGROV1), prostate (LnCaP, PC-3) cancers along with melanoma (MEWO, G361, C-32), neuroblastoma (SH-SY5Y, SK-N-AS, IMR-32) and osteosarcoma (U-2 OS, MG-63) have been treated with increasing concentration of CP for 72 hrs.
# Capan-1 = assay: MTT cytotoxicity, Capan-1 (pancreas); assay type: cell-based, human; conditions: MTT test, 72 hrs
# Excerpt: as §1, §2
# SK-OV-3 = assay: MTT cytotoxicity, SK-OV-3 (ovary); assay type: cell-based, human; conditions: MTT test, 72 hrs
# Excerpt: as §1, §2
# OE21 = assay: MTT cytotoxicity, OE21 (oesophagus); assay type: cell-based, human; conditions: MTT test, 72 hrs
# Excerpt: as §1, §2
# AGS = assay: MTT cytotoxicity, AGS (stomach); assay type: cell-based, human; conditions: MTT test, 72 hrs
# Excerpt: as §1, §2
# U-2 OS = assay: MTT cytotoxicity, U-2 OS (bone); assay type: cell-based, human; conditions: MTT test, 72 hrs
# Excerpt: as §1, §2
# SK-BR-3 = assay: MTT cytotoxicity, SK-BR-3 (breast); assay type: cell-based, human; conditions: MTT test, 72 hrs
# Excerpt: as §1, §2
# Calu-1 = assay: MTT cytotoxicity, Calu-1 (lung); assay type: cell-based, human; conditions: MTT test, 72 hrs
# Excerpt: as §1, §2
# MG-63 = assay: MTT cytotoxicity, MG-63 (bone); assay type: cell-based, human; conditions: MTT test, 72 hrs
# Excerpt: as §1, §2
# AsPC-1 = assay: MTT cytotoxicity, AsPC-1 (pancreas); assay type: cell-based, human; conditions: MTT test, 72 hrs
# Excerpt: as §1, §2
# [2] = test system: human ovarian adenocarcinoma cells sensitive (A2780); assay: Cross resistance MTT test, A2780 (CDDP sensitive); assay type: cell-based; conditions: 72 h, probit analysis
# IGROV1 = assay: MTT cytotoxicity, IGROV1 (ovary); assay type: cell-based, human; conditions: MTT test, 72 hrs
# Excerpt: as §1, §2
# MIA PaCa-2 = assay: MTT cytotoxicity, MIA PaCa-2 (pancreas); assay type: cell-based, human; conditions: MTT test, 72 hrs
# Excerpt: as §1, §2
# SK-N-AS = assay: MTT cytotoxicity, SK-N-AS (brain); assay type: cell-based, human; conditions: MTT test, 72 hrs
# U1810 = assay: MTT cytotoxicity, U1810 (lung); assay type: cell-based, human; conditions: MTT test, 72 hrs
# Excerpt: as §1, §2
# Huh-7 = assay: MTT cytotoxicity, Huh-7 (liver); assay type: cell-based, human; conditions: MTT test, 72 hrs
# Excerpt: as §1, §2
# SK-Hep-1 = assay: MTT cytotoxicity, SK-Hep-1 (liver); assay type: cell-based, human; conditions: MTT test, 72 hrs
# Excerpt: as §1, §2
# T84 = assay: MTT cytotoxicity, T84 (colon); assay type: cell-based, human; conditions: MTT test, 72 hrs
# Excerpt: as §1, §2
# HCT-116 = assay: MTT cytotoxicity, HCT-116 (colon); assay type: cell-based, human; conditions: MTT test, 72 hrs
# Excerpt: as §1, §2
# H157 = assay: MTT cytotoxicity, H157 (lung); assay type: cell-based, human; conditions: MTT test, 72 hrs
# Excerpt: as §1, §2
# [3] = Tissue distribution (Cu content) in LLC bearing mice; assay type: in vivo, C57BL mice; conditions: 50 mg/kg i.p., 24 hrs; Cu by atomic absorption, treated versus control (FIG. 4)
# Protocol: Mice were inoculated […]. on the right flank with 2×10^6 LLC cells. After 10 days, CP was administered i.p. at a dose of 50 mg/kg. The mice were sacrificed after 24 hours and tumor (indicated with 1), brain (indicated with 2), spleen (indicated with 3), kidney (indicated with 4), intestine (indicated with 5), liver (indicated with 6) and stomach (indicated with 7) were excised. Tissues were washed in ice-cold saline and weighed after removing excess fluid. All samples were mineralized in HNO3 and Cu content in each sample was measured by atomic absorption spectrophotometry. The Y axis indicates the ratio of copper amount in treated versus control mice.
# To assess the potential selectivity to the solid tumor mass, tissue distribution of CP was investigated in LLC bearing C57BL mice. Biodistribution studies are very helpful in assessing the ability of a molecule to traverse multilayers of cells. Chemotherapy of solid tumors often fails because adequate cytotoxic concentrations are not achieved due to poor penetration and non-uniform distribution of the drug.
# To assess the potential selectivity to the solid tumor mass, tissue distribution of [Cu(thp)4][PF6] (CP) was investigated in LLC bearing C57BL mice. On day 10 after tumor implantation, mice were treated with a single i.p. injection of 50 mg/kg of CP.
# [4] = test system: CDDP resistant and OXP resistant human cancer cells
# [5] = test system: human leukemic cell lines; assay: Cytotoxicity against human leukemic cell lines; assay type: cell-based; conditions: several human leukemic cell lines
# Excerpt: (§3) The detection of drug uptake by tumor cells in animal models clearly attest that CP efficiently and selectively accumulates in the solid tumor mass.
# [6] = test system: human cancer cell lines derived from solid tumors; assay: MTT cytotoxicity, whole panel of human solid tumor cell lines; assay type: cell-based; conditions: Table 1 panel, maximum
# Excerpt: as §1, §2
# In colon, liver, brain, ovary and prostate cell line panels IC50 values in the submicromolar range have been obtained.
# [7] = test system: human colon adenocarcinoma cells sensitive (HCT-116); assay: Cross resistance MTT test, HCT-116 (OXP sensitive); assay type: cell-based; conditions: 72 h, probit analysis
# L1210 murine leukemia = assay: Antitumor efficacy in murine leukemia; assay type: in vivo; conditions: established animal leukaemia
# Protocol: as §3
# The antitumor efficacy of CP was evaluated in L1210 murine leukemia and in mouse Lewis Lung carcinoma (LLC).
# C57BL mice [8] = assay: Acute toxicity tests in healthy C57BL mice; assay type: in vivo; conditions: observed 24 hrs
# Protocol: The acute toxicity was assessed by treating BALB/c or C57BL mice with a single intraperitoneal (i.p.) or endovenous (e.v.) administration of different amounts, i.e. 3.125, 6.25, 12.5, 25, 50, 100 and 200 mg/kg of tested compounds.
# To preliminarily establish the toxicity profile of CP, acute and repeat-dose toxicity studies were performed in BALB/c mice and in C57BL mice.
Structure (SMILES),MTD (Maximum Tolerated Dose) (C57BL mice [1]),IC50 (PC-3),IC50 (Capan-1),IC50 (SK-OV-3),IC50 (OE21),IC50 (AGS),IC50 (U-2 OS),IC50 (SK-BR-3),IC50 (Calu-1),IC50 (MG-63),IC50 (AsPC-1),IC50 [2],IC50 (IGROV1),IC50 (MIA PaCa-2),IC50 (SK-N-AS),IC50 (U1810),IC50 (Huh-7),IC50 (SK-Hep-1),IC50 (T84),IC50 (HCT-116),other results
"N.N.[Cl][Pt][Cl] [CDDP, cis-diamminodichloro platinum(II)]",4.8 mg/kg,1570 ± 1130 nM,9810 ± 1380 nM,3040 ± 950 nM,3760 ± 1080 nM,6330 ± 1790 nM,5150 ± 1940 nM,5120 ± 1510 nM,9650 ± 2130 nM,5760 ± 1010 nM,29500 ± 1570 nM,2430 ± 1600 nM,6010 ± 1730 nM,25900 ± 2750 nM,18100 ± 1580 nM,3240 ± 1920 nM,3240 ± 960 nM,27100 ± 2940 nM,7670 ± 1340 nM,8260 ± 1110 nM,IC50 (H157): 5990 ± 2710 nM
"F[P-](F)(F)(F)(F)F.OC[P+](CO)(CO)[Cu-3]([P+](CO)(CO)CO)([P+](CO)(CO)CO)[P+](CO)(CO)CO [CP, [Cu(thp)4][PF6]]",25.6 mg/kg,980 ± 970 nM,2430 ± 840 nM,880 ± 430 nM,1190 ± 720 nM,1140 ± 780 nM,1340 ± 920 nM,1890 ± 990 nM,910 ± 450 nM,1430 ± 740 nM,1550 ± 730 nM,1800 ± 400 nM,910 ± 940 nM,2450 ± 970 nM,940 ± 750 nM,760 ± 1020 nM,760 ± 310 nM,860 ± 750 nM,240 ± 40 nM,460 ± 70 nM,"CP concentration in solid tumor mass [3]: highest CP concentration; copper drug in brain [3]: No copper drug was detected; copper drug in intestinal tract [3]: very little; IC50 fold lower than the reference metallodrugs ([4]; Table 2 cell lines, maximum): up to 15 fold; antitumor activity levels on sensitive versus resistant cell lines ([4]; sensitive and resistant cell line pairs): very similar; cytotoxicity against human leukemic cell lines [5]: high cytotoxicity; fold more cytotoxic than CDDP [6]: up to 50 fold; fold more cytotoxic than OXP [6]: ≤ 30 fold; IC50 [7]: 1400 ± 500 nM; antitumor efficacy against animal leukaemia (L1210 murine leukemia): failed to show significant antitumor efficacy; IC50 (H157): 1510 ± 660 nM; LD50 (C57BL mice [8]; single e.v. administration): 115^b mg/kg; LD50 (C57BL mice [8]; single i.p. administration): 125^a mg/kg"
